Measurements published in publication PMC5540273, “Progress towards a public chemogenomic set for protein kinases and a call for contributions” (PLoS ONE, 2017).

Assays:
Assay in all cases: KINOMEscan competition binding
ASK1 = biological target: T1, ASK1 (Homo sapiens, UniProt Q99683); conditions: read-out: %Inh ASK1
T1 sequence (Q99683 1-1374): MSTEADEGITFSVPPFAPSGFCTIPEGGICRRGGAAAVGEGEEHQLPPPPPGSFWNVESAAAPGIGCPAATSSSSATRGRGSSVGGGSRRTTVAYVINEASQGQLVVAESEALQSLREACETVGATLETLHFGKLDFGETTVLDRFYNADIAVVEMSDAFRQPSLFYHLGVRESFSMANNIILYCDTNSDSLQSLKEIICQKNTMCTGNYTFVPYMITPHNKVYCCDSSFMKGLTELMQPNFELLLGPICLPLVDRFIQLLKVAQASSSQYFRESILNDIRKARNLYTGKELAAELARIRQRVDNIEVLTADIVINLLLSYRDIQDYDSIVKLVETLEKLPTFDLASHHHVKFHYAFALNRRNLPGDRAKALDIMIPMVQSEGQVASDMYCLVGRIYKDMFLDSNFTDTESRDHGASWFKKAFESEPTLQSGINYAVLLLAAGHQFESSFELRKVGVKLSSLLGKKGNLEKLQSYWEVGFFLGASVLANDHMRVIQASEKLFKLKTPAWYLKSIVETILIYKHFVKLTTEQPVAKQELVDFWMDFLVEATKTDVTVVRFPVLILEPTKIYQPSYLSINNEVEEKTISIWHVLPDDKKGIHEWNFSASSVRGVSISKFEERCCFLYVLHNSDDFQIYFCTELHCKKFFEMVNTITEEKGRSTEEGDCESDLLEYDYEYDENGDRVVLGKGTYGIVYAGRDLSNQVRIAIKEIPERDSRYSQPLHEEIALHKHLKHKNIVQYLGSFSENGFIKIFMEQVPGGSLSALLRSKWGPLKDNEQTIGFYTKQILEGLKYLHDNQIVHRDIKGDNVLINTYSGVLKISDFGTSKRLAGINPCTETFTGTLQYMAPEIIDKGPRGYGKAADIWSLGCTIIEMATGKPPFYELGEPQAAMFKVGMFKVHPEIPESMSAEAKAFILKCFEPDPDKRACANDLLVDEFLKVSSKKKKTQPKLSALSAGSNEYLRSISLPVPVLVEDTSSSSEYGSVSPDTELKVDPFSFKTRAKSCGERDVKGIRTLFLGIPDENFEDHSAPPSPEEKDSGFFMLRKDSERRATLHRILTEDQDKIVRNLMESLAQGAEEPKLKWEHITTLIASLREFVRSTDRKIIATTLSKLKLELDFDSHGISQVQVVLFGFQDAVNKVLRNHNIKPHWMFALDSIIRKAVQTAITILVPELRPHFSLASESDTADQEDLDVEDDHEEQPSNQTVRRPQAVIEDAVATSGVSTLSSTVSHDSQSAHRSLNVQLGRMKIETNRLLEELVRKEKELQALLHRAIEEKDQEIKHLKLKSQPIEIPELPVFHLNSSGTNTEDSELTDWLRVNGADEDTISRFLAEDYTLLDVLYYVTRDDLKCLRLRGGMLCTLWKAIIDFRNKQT

BMPR1A = BMPR1A (Homo sapiens, UniProt P36894); conditions: read-out: %Inh BMPR1A
BMPR1A, sequence (P36894 24-532): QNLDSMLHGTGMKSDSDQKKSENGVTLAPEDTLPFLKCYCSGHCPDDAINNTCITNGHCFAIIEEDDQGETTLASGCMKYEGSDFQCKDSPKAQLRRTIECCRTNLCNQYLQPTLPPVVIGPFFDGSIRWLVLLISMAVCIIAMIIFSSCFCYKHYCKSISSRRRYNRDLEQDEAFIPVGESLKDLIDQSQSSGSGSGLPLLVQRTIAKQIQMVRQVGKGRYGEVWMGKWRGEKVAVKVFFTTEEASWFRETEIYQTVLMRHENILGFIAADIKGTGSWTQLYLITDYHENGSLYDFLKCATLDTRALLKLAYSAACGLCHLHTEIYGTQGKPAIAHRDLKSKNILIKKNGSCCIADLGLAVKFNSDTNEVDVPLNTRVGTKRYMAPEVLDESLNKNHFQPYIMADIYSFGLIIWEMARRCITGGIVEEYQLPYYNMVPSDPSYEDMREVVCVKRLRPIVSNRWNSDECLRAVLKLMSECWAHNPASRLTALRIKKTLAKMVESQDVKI

CDKL1 = CDKL1 (Homo sapiens, UniProt Q00532); conditions: read-out: %Inh CDKL1
CDKL1, sequence (Q00532 whole entry): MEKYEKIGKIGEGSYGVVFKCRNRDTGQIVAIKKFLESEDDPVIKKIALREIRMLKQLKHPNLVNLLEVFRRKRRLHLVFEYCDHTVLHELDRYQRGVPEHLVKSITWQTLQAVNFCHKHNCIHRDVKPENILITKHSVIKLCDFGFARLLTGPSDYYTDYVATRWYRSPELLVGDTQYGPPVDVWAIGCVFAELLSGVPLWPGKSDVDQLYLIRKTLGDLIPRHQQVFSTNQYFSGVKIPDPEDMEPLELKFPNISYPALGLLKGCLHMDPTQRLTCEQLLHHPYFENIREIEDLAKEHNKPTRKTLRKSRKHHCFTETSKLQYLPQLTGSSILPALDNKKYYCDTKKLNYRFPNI

CSNK1G1 = CSNK1G1 (Homo sapiens, UniProt Q9HCP0); conditions: read-out: %Inh CSNK1G1
CSNK1G1, sequence (Q9HCP0 whole entry): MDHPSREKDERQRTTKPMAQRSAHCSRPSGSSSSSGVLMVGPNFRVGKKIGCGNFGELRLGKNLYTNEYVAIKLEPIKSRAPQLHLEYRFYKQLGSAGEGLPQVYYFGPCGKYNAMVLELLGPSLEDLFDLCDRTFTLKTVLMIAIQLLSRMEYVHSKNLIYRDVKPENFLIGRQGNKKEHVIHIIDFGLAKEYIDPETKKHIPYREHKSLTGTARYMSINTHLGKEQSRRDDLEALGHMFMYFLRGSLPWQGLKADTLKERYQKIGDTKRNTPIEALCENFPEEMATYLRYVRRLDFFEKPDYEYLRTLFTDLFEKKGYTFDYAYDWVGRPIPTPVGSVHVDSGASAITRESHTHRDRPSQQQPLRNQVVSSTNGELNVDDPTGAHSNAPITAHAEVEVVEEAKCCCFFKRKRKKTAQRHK

CSNK1G3 = CSNK1G3 (Homo sapiens, UniProt Q9Y6M4); conditions: read-out: %Inh CSNK1G3
CSNK1G3, sequence (Q9Y6M4 whole entry): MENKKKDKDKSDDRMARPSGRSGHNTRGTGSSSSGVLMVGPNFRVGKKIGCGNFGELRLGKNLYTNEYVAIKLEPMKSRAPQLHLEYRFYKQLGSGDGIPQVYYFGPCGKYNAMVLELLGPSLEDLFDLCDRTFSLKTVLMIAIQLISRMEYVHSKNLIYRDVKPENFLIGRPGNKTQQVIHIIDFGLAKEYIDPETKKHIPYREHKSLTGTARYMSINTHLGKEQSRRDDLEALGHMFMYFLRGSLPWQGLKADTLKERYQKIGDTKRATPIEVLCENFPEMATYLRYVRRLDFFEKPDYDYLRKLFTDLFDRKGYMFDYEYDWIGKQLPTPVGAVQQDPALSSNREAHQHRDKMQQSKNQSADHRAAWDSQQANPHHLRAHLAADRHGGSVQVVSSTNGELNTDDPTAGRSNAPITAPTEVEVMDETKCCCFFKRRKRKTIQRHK

IRAK3 = biological target: T2, IRAK3 (Homo sapiens, UniProt Q9Y616); conditions: read-out: %Inh IRAK3
T2 sequence (Q9Y616 1-596): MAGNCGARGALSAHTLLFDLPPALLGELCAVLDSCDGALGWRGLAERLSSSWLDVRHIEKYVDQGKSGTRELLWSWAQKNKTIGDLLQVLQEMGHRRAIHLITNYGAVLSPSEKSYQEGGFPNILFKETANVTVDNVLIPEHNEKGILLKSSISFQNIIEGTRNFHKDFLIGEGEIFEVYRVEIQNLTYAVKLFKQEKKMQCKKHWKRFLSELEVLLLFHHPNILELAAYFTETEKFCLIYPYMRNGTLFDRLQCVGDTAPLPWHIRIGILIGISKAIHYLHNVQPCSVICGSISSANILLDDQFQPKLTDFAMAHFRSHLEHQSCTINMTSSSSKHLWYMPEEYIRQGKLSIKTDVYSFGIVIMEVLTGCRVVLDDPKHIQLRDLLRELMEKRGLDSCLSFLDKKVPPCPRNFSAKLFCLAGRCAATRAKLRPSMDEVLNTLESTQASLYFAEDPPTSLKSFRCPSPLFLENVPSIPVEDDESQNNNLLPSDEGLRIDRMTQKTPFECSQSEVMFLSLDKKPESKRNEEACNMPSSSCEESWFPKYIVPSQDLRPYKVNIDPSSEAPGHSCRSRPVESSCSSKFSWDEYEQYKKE

## CS(=O)(=O)Cc1ccc(Nc2nccc(-c3c(-c4cccc(NC(=O)C5CCCCC5)c4)nn4ncccc34)n2)cc1 [UNC10225159A]
ASK1
  inhibition at 1 µM: 0%
BMPR1A
  inhibition at 1 µM: 0%
CDKL1
  inhibition at 1 µM: 0%
CSNK1G1
  inhibition at 1 µM: 2%
CSNK1G3
  inhibition at 1 µM: 4%
IRAK3
  inhibition at 1 µM: 3%

## Cn1cc(-c2cnc(N)c3c(-c4ccc5c(c4)CCN5C(=O)Cc4ccccc4)csc23)cn1 [UNC10225012A]
ASK1
  inhibition at 1 µM: 21%
BMPR1A
  inhibition at 1 µM: 1%
CDKL1
  inhibition at 1 µM: 9%
CSNK1G1
  inhibition at 1 µM: 21%
CSNK1G3
  inhibition at 1 µM: 22%
IRAK3
  inhibition at 1 µM: 5%

## O=c1cc(N2CCOCC2)nc2n(Cc3cccc(Cl)c3Cl)c(C3CC3)nn12 [UNC10225469A]
ASK1
  inhibition at 1 µM: 0%
BMPR1A
  inhibition at 1 µM: 15%
CDKL1
  inhibition at 1 µM: 20%
CSNK1G1
  inhibition at 1 µM: 0%
CSNK1G3
  inhibition at 1 µM: 23%
IRAK3
  inhibition at 1 µM: 0%

## COc1cccc(OC)c1C(=O)Nc1cccc(-c2nn3ccccc3c2-c2ccnc(Nc3cccc(F)c3)n2)c1 [UNC10225310A]
ASK1
  inhibition at 1 µM: 22%
BMPR1A
  inhibition at 1 µM: 9%
CDKL1
  inhibition at 1 µM: 15%
CSNK1G1
  inhibition at 1 µM: 14%
CSNK1G3
  inhibition at 1 µM: 3%
IRAK3
  inhibition at 1 µM: 0%

## Cc1ccc(NC(=O)Nc2cccc(C(F)(F)F)c2)cc1 [UNC10225187A]
ASK1
  inhibition at 1 µM: 20%
BMPR1A
  inhibition at 1 µM: 94.6%
CDKL1
  inhibition at 1 µM: 14%
CSNK1G1
  inhibition at 1 µM: 0%
CSNK1G3
  inhibition at 1 µM: 0%
IRAK3
  inhibition at 1 µM: 100%
